Experimental data from publication PMC4867616, “Imaging of Cerebral Amyloid Angiopathy with Bivalent ^99mTc-Hydroxamamide Complexes” (Scientific Reports, 2016).
Several values for one entry are separate records, joined by “and”; a condition that tells them apart may be missing. Equal entries are not always repeated. Blank lines part the entries; values can stand above or below the compound they belong to.

Assays:
Aβ = target: Aβ; parameters: method as in PMID 12801237, PMID 19837759; details: order of magnitude only; cited from earlier work
[1] = normal mice, 2 min postinjection, similar experimental conditions; cited from earlier work
[2] = Ex vivo biodistribution in normal mice; parameters: species or system ddY mice; details: i.v., mean (SD), 5 animals
Protocol: To evaluate brain uptake of ^99mTc-Ham complexes, biodistribution experiments of ^99mTc-Ham complexes were performed in normal mice. We selected ^18F-florbetapir as a control and compared the results of ^99mTc-Ham complexes with that of ^18F-florbetapir (Fig. 2). The brain uptake of [^99mTc]SB1A, [^99mTc]SB2A, [^99mTc]BT1B, and [^99mTc]BT2B at 2 min postinjection was 0.37, 0.28, 0.36, and 0.37% injected dose (ID)/g, respectively. The radioactivity in the brains remained low until 60 min postinjection. The results of the biodistribution study are shown in Table S1 in Supplementary information.
A saline solution (100 μL) of ^99mTc-Ham complexes (20 kBq) containing EtOH (10 μL) was injected directly into the tail vein of ddY mice (male, 5 weeks old). The mice were sacrificed at 2, 10, 30, and 60 min postinjection. The organs of interest were removed and weighed, and radioactivity was measured using a γ counter (PerkinElmer). The %ID/g of samples was calculated by comparing the sample counts with the count of the diluted initial dose.
*Corresponding author: M. Ono. Address: 46-29 Yoshida Shimoadachi-cho, Sakyo-ku, Kyoto 606-8501, Japan, Phone: +81-75-753-4608, Fax: +81-75-753-4568, E-mail: ono@pharm.kyoto-u.ac.jp. Ex vivo biodistribution in normal mice. A saline solution (100 μL) of ^99mTc-Ham complexes (20 kBq) containing EtOH (10 μL) was injected directly into the tail vein of ddY mice (male, 5 weeks old). The mice were sacrificed at 2, 10, 30, and 60 min postinjection. The organs of interest were removed and weighed, and radioactivity was measured using a γ counter (Wallac 1470 Wizard; PerkinElmer, Massachusetts, USA). Percentage dose per organ was calculated by comparing the tissue counts to suitably diluted aliquots of the injected material. The %dose/g of samples was calculated by comparing the sample counts with the count of the diluted initial dose.

Compound: CNc1ccc(/C=C/c2ccc(OCCOCCOCCF)nc2)cc1 [[^18F]florbetapir, reference compound]
Kd (Aβ): nM order
Initial brain uptake [1]: 4.90 %ID/g

Biodistribution of radioactivity, Blood ([2]; 2 min after injection): 18.89 (4.57) % injected dose per gram
Biodistribution of radioactivity, Heart ([2]; 2 min after injection): 9.48 (2.01) % injected dose per gram
Biodistribution of radioactivity, Intestine ([2]; 2 min after injection): 1.94 (0.25) % injected dose per gram
Biodistribution of radioactivity, Kidney ([2]; 2 min after injection): 10.74 (2.03) % injected dose per gram
Biodistribution of radioactivity, Liver ([2]; 2 min after injection): 28.55 (4.86) % injected dose per gram
Biodistribution of radioactivity, Lung ([2]; 2 min after injection): 15.47 (4.14) % injected dose per gram
Biodistribution of radioactivity, Pancreas ([2]; 2 min after injection): 4.12 (0.62) % injected dose per gram
Biodistribution of radioactivity, Spleen ([2]; 2 min after injection): 9.73 (3.34) % injected dose per gram
Biodistribution of radioactivity, Stomach ([2]; 2 min after injection): 1.64 (0.41) % injected dose per organ
Biodistribution of radioactivity, Blood ([2]; 10 min after injection): 9.30 (1.96) % injected dose per gram
Biodistribution of radioactivity, Brain ([2]; 10 min after injection): 0.19 (0.02) % injected dose per gram
Biodistribution of radioactivity, Heart ([2]; 10 min after injection): 6.51 (0.77) % injected dose per gram
Biodistribution of radioactivity, Intestine ([2]; 10 min after injection): 4.27 (0.88) % injected dose per gram
Biodistribution of radioactivity, Kidney ([2]; 10 min after injection): 9.48 (1.28) % injected dose per gram
Biodistribution of radioactivity, Liver ([2]; 10 min after injection): 31.03 (2.29) % injected dose per gram
Biodistribution of radioactivity, Lung ([2]; 10 min after injection): 9.67 (0.88) % injected dose per gram
Biodistribution of radioactivity, Pancreas ([2]; 10 min after injection): 3.09 (0.38) % injected dose per gram
Biodistribution of radioactivity, Spleen ([2]; 10 min after injection): 9.70 (3.03) % injected dose per gram
Biodistribution of radioactivity, Stomach ([2]; 10 min after injection): 4.54 (0.97) % injected dose per organ
Biodistribution of radioactivity, Blood ([2]; 30 min after injection): 6.06 (0.29) % injected dose per gram
Biodistribution of radioactivity, Brain ([2]; 30 min after injection): 0.16 (0.03) % injected dose per gram
Biodistribution of radioactivity, Heart ([2]; 30 min after injection): 2.98 (0.63) % injected dose per gram
Biodistribution of radioactivity, Intestine ([2]; 30 min after injection): 7.06 (1.67) % injected dose per gram
Biodistribution of radioactivity, Kidney ([2]; 30 min after injection): 6.18 (0.84) % injected dose per gram
Biodistribution of radioactivity, Liver ([2]; 30 min after injection): 20.17 (3.18) % injected dose per gram
Biodistribution of radioactivity, Lung ([2]; 30 min after injection): 5.31 (0.67) % injected dose per gram
Biodistribution of radioactivity, Pancreas ([2]; 30 min after injection): 1.74 (0.33) % injected dose per gram
Biodistribution of radioactivity, Spleen ([2]; 30 min after injection): 7.86 (1.11) % injected dose per gram
Biodistribution of radioactivity, Stomach ([2]; 30 min after injection): 10.28 (2.03) % injected dose per organ
Biodistribution of radioactivity, Blood ([2]; 60 min after injection): 2.71 (0.14) % injected dose per gram
Biodistribution of radioactivity, Brain ([2]; 60 min after injection): 0.08 (0.00) % injected dose per gram
Biodistribution of radioactivity, Heart ([2]; 60 min after injection): 4.30 (0.14) % injected dose per gram
Biodistribution of radioactivity, Intestine ([2]; 60 min after injection): 14.34 (2.35) % injected dose per gram
Biodistribution of radioactivity, Kidney ([2]; 60 min after injection): 9.66 (0.18) % injected dose per gram
Biodistribution of radioactivity, Liver ([2]; 60 min after injection): 22.16 (2.20) % injected dose per gram
Biodistribution of radioactivity, Lung ([2]; 60 min after injection): 5.14 (0.29) % injected dose per gram
Biodistribution of radioactivity, Pancreas ([2]; 60 min after injection): 2.67 (0.07) % injected dose per gram
Biodistribution of radioactivity, Spleen ([2]; 60 min after injection): 5.44 (0.49) % injected dose per gram
Biodistribution of radioactivity, Stomach ([2]; 60 min after injection): 6.63 (1.12) % injected dose per organ
Compound: CN(C)c1ccc(/C=C/c2ccc(C3=N[O][99Tc-]4(=[O])([NH]C(c5ccc(N(C)C)cc5)=N[O]4)[NH2+]3)cc2)cc1 (single isomer, unassigned) [[^99mTc]SB1A]
Biodistribution of radioactivity, Brain ([2]; 2 min after injection): 0.37 % injected dose per gram and 0.37 (0.05) % injected dose per gram

Compound: Thioflavin-S
Kd (Aβ): μM order

Biodistribution of radioactivity, Blood ([2]; 2 min after injection): 18.61 (2.47) % injected dose per gram
Biodistribution of radioactivity, Heart ([2]; 2 min after injection): 5.25 (0.22) % injected dose per gram
Biodistribution of radioactivity, Intestine ([2]; 2 min after injection): 0.90 (0.25) % injected dose per gram
Biodistribution of radioactivity, Kidney ([2]; 2 min after injection): 5.94 (0.73) % injected dose per gram
Biodistribution of radioactivity, Liver ([2]; 2 min after injection): 19.90 (4.06) % injected dose per gram
Biodistribution of radioactivity, Lung ([2]; 2 min after injection): 10.87 (2.06) % injected dose per gram
Biodistribution of radioactivity, Pancreas ([2]; 2 min after injection): 1.80 (0.28) % injected dose per gram
Biodistribution of radioactivity, Spleen ([2]; 2 min after injection): 3.83 (0.84) % injected dose per gram
Biodistribution of radioactivity, Stomach ([2]; 2 min after injection): 1.39 (0.21) % injected dose per organ
Biodistribution of radioactivity, Blood ([2]; 10 min after injection): 9.34 (2.62) % injected dose per gram
Biodistribution of radioactivity, Brain ([2]; 10 min after injection): 0.17 (0.04) % injected dose per gram
Biodistribution of radioactivity, Heart ([2]; 10 min after injection): 3.30 (1.02) % injected dose per gram
Biodistribution of radioactivity, Intestine ([2]; 10 min after injection): 2.00 (0.86) % injected dose per gram
Biodistribution of radioactivity, Kidney ([2]; 10 min after injection): 4.29 (1.25) % injected dose per gram
Biodistribution of radioactivity, Liver ([2]; 10 min after injection): 25.64 (6.77) % injected dose per gram
Biodistribution of radioactivity, Lung ([2]; 10 min after injection): 6.50 (1.41) % injected dose per gram
Biodistribution of radioactivity, Pancreas ([2]; 10 min after injection): 1.58 (0.55) % injected dose per gram
Biodistribution of radioactivity, Spleen ([2]; 10 min after injection): 3.00 (0.82) % injected dose per gram
Biodistribution of radioactivity, Stomach ([2]; 10 min after injection): 3.76 (0.82) % injected dose per organ
Biodistribution of radioactivity, Blood ([2]; 30 min after injection): 5.84 (0.65) % injected dose per gram
Biodistribution of radioactivity, Brain ([2]; 30 min after injection): 0.11 (0.02) % injected dose per gram
Biodistribution of radioactivity, Heart ([2]; 30 min after injection): 2.72 (0.28) % injected dose per gram
Biodistribution of radioactivity, Intestine ([2]; 30 min after injection): 6.81 (2.03) % injected dose per gram
Biodistribution of radioactivity, Kidney ([2]; 30 min after injection): 5.24 (0.59) % injected dose per gram
Biodistribution of radioactivity, Liver ([2]; 30 min after injection): 27.06 (2.49) % injected dose per gram
Biodistribution of radioactivity, Lung ([2]; 30 min after injection): 5.00 (0.34) % injected dose per gram
Biodistribution of radioactivity, Pancreas ([2]; 30 min after injection): 1.72 (0.11) % injected dose per gram
Biodistribution of radioactivity, Spleen ([2]; 30 min after injection): 3.11 (0.48) % injected dose per gram
Biodistribution of radioactivity, Stomach ([2]; 30 min after injection): 8.24 (1.41) % injected dose per organ
Biodistribution of radioactivity, Blood ([2]; 60 min after injection): 3.51 (0.34) % injected dose per gram
Biodistribution of radioactivity, Brain ([2]; 60 min after injection): 0.08 (0.02) % injected dose per gram
Biodistribution of radioactivity, Heart ([2]; 60 min after injection): 1.64 (0.32) % injected dose per gram
Biodistribution of radioactivity, Intestine ([2]; 60 min after injection): 9.95 (2.65) % injected dose per gram
Biodistribution of radioactivity, Kidney ([2]; 60 min after injection): 3.20 (0.45) % injected dose per gram
Biodistribution of radioactivity, Liver ([2]; 60 min after injection): 19.04 (3.61) % injected dose per gram
Biodistribution of radioactivity, Lung ([2]; 60 min after injection): 2.78 (0.54) % injected dose per gram
Biodistribution of radioactivity, Pancreas ([2]; 60 min after injection): 1.11 (0.18) % injected dose per gram
Biodistribution of radioactivity, Spleen ([2]; 60 min after injection): 1.36 (0.54) % injected dose per gram
Biodistribution of radioactivity, Stomach ([2]; 60 min after injection): 6.47 (0.85) % injected dose per organ
Compound: CN(C)c1ccc(C2=N[O][99Tc-]3(=[O])([NH]2)[NH2+]C(c2ccc4nc(-c5ccc(N(C)C)cc5)sc4c2)=N[O]3)cc1 [[^99mTc]BT1B]
Biodistribution of radioactivity, Brain ([2]; 2 min after injection): 0.36 % injected dose per gram and 0.36 (0.03) % injected dose per gram
